In patent US8846653B2, “Delta-tocotrienol treatment and prevention of pancreatic cancer” (University of South Florida, priority 2006, dated 2014):

Assays:
Format in all cases: cell-based, human
[1] = system: MiaPaCa-2 cells; assay: MTT assay of MiaPaCa2 cultures, single 50 μM dose; parameters: rel amt (relative value set to the control): unit not given here; conditions: MiaPaCa2, 50 μM; for MTT assay result, av-blank: average minus blank; for MTT assay result, av: average of 7 runs
How it was run: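 MiaPaCa-2 cells given a single 50 μM dose of test agent (tocotrienols, tocopherols, tocopherol succinate, geranylgeraniol or succinic acid) or vehicle (ethanol-extracted olive oil). Viability read by MTT at 48 or 120 hours after treatment, alongside vehicle-only control culture.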

[2] = system: MiaPaCa-2 cells; assay: MTS assay of MiaPaCa2 cultures, single 50 μM dose; conditions: MiaPaCa2, 50 μM
How it was run: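 MiaPaCa-2 pancreatic cancer cells were grown in complete DMEM with 10% fetal bovine serum, 1% penicillin-streptomycin and 1% L-glutamine, kept at 37° C. in a humidified 5% CO2 incubator. They received a single 50 μM dose of test agent or vehicle alongside an untreated control culture, and viability was assessed by MTS assay.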

[3] = system: BXPC3 cells; assay: MTT assay of BXPC3 cultures, single 50 μM dose; parameters: MTT assay result, run 1 / MTT assay result, run 2 / MTT assay result, run 3 / MTT assay result, run 4 / MTT assay result, run 5 / MTT assay result, run 6 / MTT assay result, run 7 / MTT assay result, av (average) / MTT assay result, av-blank / MTT assay result, av: unit not given here; conditions: BXPC3, 50 μM; for MTT assay result, av-blank: average minus blank
How it was run: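 BXPC3 cells in 10% FBS medium at 37° C, 5% CO2, given a single 50 μM dose of tocotrienols, tocopherols, tocopherol succinate, geranylgeraniol, succinic acid or vehicle, alongside untreated control. Viability read by MTT at 48 or 120 hours.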

With `CC(C)=CCC/C(C)=C/CC/C(C)=C/CC[C@]1(C)CCc2cc(O)cc(C)c2O1` [T3 delta, delta tocotrienol] the “rel amt (relative value set to the control)” value (“relative value set” for short) ([1]; 48 hours) was 70, the “MTT assay result, av-blank” value ([1]; 48 hours) was 0.217 and the “MTT assay result, av” value ([1]; 48 hours) was 0.263. The “MTT assay result, run 1” value ([1]; 48 hours) was 0.276, the “MTT assay result, run 2” value ([1]; 48 hours) was 0.284 and the “MTT assay result, run 3” value ([1]; 48 hours) was 0.262. The “MTT assay result, run 4” value ([1]; 48 hours) was 0.239, the “MTT assay result, run 5” value ([1]; 48 hours) was 0.275 and the “MTT assay result, run 6” value ([1]; 48 hours) was 0.239. For the same compound, the “MTT assay result, run 7” value ([1]; 48 hours) was 0.269, the “relative value set” value ([1]; 120 hours (5 days)) was 72 and the “MTT assay result, av-blank” value ([1]; 120 hours (5 days)) was 1.304. For the same compound, the “MTT assay result, av” value ([1]; 120 hours (5 days)) was 1.356, the “MTT assay result, run 1” value ([1]; 120 hours (5 days)) was 1.344 and the “MTT assay result, run 2” value ([1]; 120 hours (5 days)) was 1.314. The “MTT assay result, run 3” value ([1]; 120 hours (5 days)) was 1.27, the “MTT assay result, run 4” value ([1]; 120 hours (5 days)) was 1.337 and the “MTT assay result, run 5” value ([1]; 120 hours (5 days)) was 1.579. The “MTT assay result, run 6” value ([1]; 120 hours (5 days)) was 1.308, the “MTT assay result, run 7” value ([1]; 120 hours (5 days)) was 1.341 and the “relative value set” value ([2]; 24 hours) was 77. The “MTS assay result, run 1” value ([2]; 24 hours) was 0.174, the “MTS assay result, run 2” value ([2]; 24 hours) was 0.159 and the “MTS assay result, run 3” value ([2]; 24 hours) was 0.171. The “MTS assay result, run 4” value ([2]; 24 hours) was 0.139, the “MTS assay result, run 5” value ([2]; 24 hours) was 0.185 and the “MTS assay result, run 6” value ([2]; 24 hours) was 0.187. The “MTS assay result, run 7” value ([2]; 24 hours) was 0.18, the “MTS assay result, run 8” value ([2]; 24 hours) was 0.167 and the “MTS assay result, run 9” value ([2]; 24 hours) was 0.170. For the same compound, the “relative value set” value ([2]; 48 hours) was 67, the “MTS assay result, run 1” value ([2]; 48 hours) was 0.229 and the “MTS assay result, run 2” value ([2]; 48 hours) was 0.22. The “MTS assay result, run 3” value ([2]; 48 hours) was 0.218, the “MTS assay result, run 4” value ([2]; 48 hours) was 0.232 and the “MTS assay result, run 5” value ([2]; 48 hours) was 0.294. The “MTS assay result, run 6” value ([2]; 48 hours) was 0.272, the “MTS assay result, run 7” value ([2]; 48 hours) was 0.221 and the “MTS assay result, run 8” value ([2]; 48 hours) was 0.243. The “MTS assay result, run 9” value ([2]; 48 hours) was 0.241, the “relative value set” value ([2]; 72 hours) was 132 and the “MTS assay result, run 1” value ([2]; 72 hours) was 0.667. For the same compound, the “MTS assay result, run 2” value ([2]; 72 hours) was 0.615, the “MTS assay result, run 3” value ([2]; 72 hours) was 0.605 and the “MTS assay result, run 4” value ([2]; 72 hours) was 0.587. The “MTS assay result, run 5” value ([2]; 72 hours) was 0.582, the “MTS assay result, run 6” value ([2]; 72 hours) was 0.491 and the “MTS assay result, run 7” value ([2]; 72 hours) was 0.524. The “MTS assay result, run 8” value ([2]; 72 hours) was 0.604, the “MTS assay result, run 9” value ([2]; 72 hours) was 0.584 and the “relative value set” value ([3]; 48 hours) was 95. For the same compound, the “MTT assay result, av-blank” value ([3]; 48 hours) was 0.216, the “MTT assay result, av (average)” value ([3]; 48 hours, average of 7 runs) was 0.265 and the “MTT assay result, run 1” value ([3]; 48 hours) was 0.26. For the same compound, the “MTT assay result, run 2” value ([3]; 48 hours) was 0.255, the “MTT assay result, run 3” value ([3]; 48 hours) was 0.24 and the “MTT assay result, run 4” value ([3]; 48 hours) was 0.263. The “MTT assay result, run 5” value ([3]; 48 hours) was 0.271, the “MTT assay result, run 6” value ([3]; 48 hours) was 0.277 and the “MTT assay result, run 7” value ([3]; 48 hours) was 0.288. For the same compound, the “relative value set” value ([3]; 120 hours (5 days)) was 81, the “MTT assay result, av-blank” value ([3]; 120 hours (5 days)) was 0.465 and the “MTT assay result, av” value ([3]; 120 hours (5 days), average of 7 runs) was 0.520. The “MTT assay result, run 1” value ([3]; 120 hours (5 days)) was 0.485, the “MTT assay result, run 2” value ([3]; 120 hours (5 days)) was 0.49 and the “MTT assay result, run 3” value ([3]; 120 hours (5 days)) was 0.522. The “MTT assay result, run 4” value ([3]; 120 hours (5 days)) was 0.539, the “MTT assay result, run 5” value ([3]; 120 hours (5 days)) was 0.551 and the “MTT assay result, run 6” value ([3]; 120 hours (5 days)) was 0.523. The “MTT assay result, run 7” value ([3]; 120 hours (5 days)) was 0.527.
